According to patent publication EP4755891A1, “ARF1 INHIBITOR AND USE THEREOF” (AOBIO PHARMACEUTICAL CO., LTD., priority 2023, dated 2025):
“Also recorded” adds a separate entry of the source.

Legend:
CT26 colon cancer [1] = assay: Inhibition of CT26 colon cancer in BALB/c mice (Example 47, 5 mg/kg); type: in vivo; conditions: gavaged daily, two consecutive weeks, FIG. 9 and FIG. 10
Description: In this example, the inhibitory effects of Compounds 9, 11-3, 25, 26, 27, and DU102 on colon cancer growth were tested.
Murine CT26 cells were inoculated into the left abdomen of 6-week-old male mice at a dose of 5×10^5 cells per mouse. Approximately 7 days later, the mice were randomly divided into two groups: the control group or the compound treatment group. They were gavaged daily with either the vehicle control (ddH2O or 5% DMSO in corn oil) or 5 mg/kg of Compounds 9, 11-3, 25, 26, or 27 (dissolved in the corresponding vehicle) for two consecutive weeks. Tumor diameters were measured every 2-3 days using a digital caliper (ULINE, Cat^# H-7352), and the tumor volume was calculated using the formula ½ × longitudinal diameter (length) × maximum transverse diameter (width). When the maximum tumor volume reached 2000 mm^3, the mice were euthanized.

CT26 colon cancer [2] = assay: Inhibition of CT26 colon cancer in BALB/c mice (Example 48, 10 mg/kg); type: in vivo; conditions: gavaged daily, two consecutive weeks, FIG. 11
Description: In this example, the inhibitory effects of Compounds 28, 30, 31, 33, 34, and DU102 synthesized in the above preparation examples on the growth of colon cancer were tested.
Murine CT26 cells were inoculated into the left abdomen of 6-week-old male mice at a dose of 5×10^5 cells per mouse. Approximately 7 days later, the mice were randomly divided into two groups: the control group or the compound treatment group. The mice were gavaged daily with either the vehicle control (ddH2O or 5% DMSO in corn oil) or 10 mg/kg of Compounds 28, 30, 31, 33, 34, and DU102 (dissolved in the corresponding vehicle) for two consecutive weeks. Tumor diameters were measured every 2-3 days using a digital caliper (ULINE, Cat^# H-7352), and the tumor volume was calculated using the formula ½ × longitudinal diameter (length) × maximum transverse diameter (width). When the maximum tumor volume reached 3000 mm^3, the mice were euthanized.

NF-κB signaling pathway = assay: Activation of NF-κB signaling pathway (phosphorylated P65, Western blot); type: cell-based, Murine; conditions: CT26 cells; FIG. 6
Description: In this example, Compounds 3 and 9 synthesized in the above preparation examples were tested for their ability to activate the NF-κB signaling pathway, as indicated by an increase of phosphorylated P65. GCA, a known Arf1 inhibitor, was used as a positive control.
In CT26 cells treated with DMSO, GCA, Compound 3, or Compound 9, the relevant protein levels were evaluated by Western blot analysis as previously described (Wang et al., 2020).

Mouse neuroblastoma N2A = assay: Test for Golgi morphology abnormalities (GM130 immunofluorescence); type: cell-based; conditions: N2A cells; FIG. 4
Description: GCA, a known Arf1 inhibitor, was used as a positive control.
Mouse neuroblastoma N2A (N2a, ATCC®CCL-131™) was cultured, treated, and subjected to immunofluorescence staining as previously reported (Wang et al., 2021).

Arf1 = target: T1, Arf1 (Homo sapiens, UniProt P84077); assay: Inhibition test of Arf1 activation (Active Arf1 pull-down and detection kit, Western blot); type: cell-based; conditions: lysate of liver cancer Huh-7 cells; GTP-bound Arf1; FIG. 3
T1 construct: endogenous in cells; host or cells: Huh-7 liver cancer cells (lysate)
Description: In this example, the inhibitory ability of Compounds 3 and 9 synthesized in the above preparation examples on Arf1 activation was tested. The Pierce Active Arf1 Pull-Down and Detection Kit (Thermo Scientific, Cat#16121) was used with the lysate of liver cancer Huh-7 cells to detect the activated Arf1. It is a complete kit that selectively enriches and detects GTP-bound Arf1 GTPase through specific protein interactions with the GGA3 protein-binding domain.

CCL5 = assay: Upregulation of chemokine CCL5 expression (quantitative RT-PCR); type: cell-based, Murine; conditions: CT26 cells; FIG. 5
Description: In this example, the upregulation of chemokine CCL5 expression induced by the treatment of Compounds 3 and 9 synthesized in the above preparation examples was tested. Quantitative RT-PCR was used to measure the expression level of chemokine CCL5 in CT26 cells treated with DMSO, Compound 3, or Compound 9.

[3] = test system: Drosophila orthotopic tumors; assay: Inhibition of orthotopic tumor growth in Drosophila; type: in vivo; conditions: 5 µM in food, 4 days; Ras^V12-PMML clones; FIG. 7
Description: In this example, the inhibitory effects of Compounds 3 and 9 synthesized in the above preparation examples on the growth of Drosophila orthotopic tumors were tested. As previously described, renal stem cell tumor clusters were induced by expressing Ras in Drosophila renal stem cell (Ras^V12-PMML) clones (Singh et al., 2016). The Drosophila carrying Ras^V12-PMML clones were cultured with normal food at room temperature for 4 days to allow tumor growth. They were then switched to food containing the indicated drugs for an additional 4 days, followed by feeding the Drosophila carrying Ras^V12-PMML with normal food containing DMSO or 5 µM Compound 3 or Compound 9. In the indicated groups, the number of esg>GFP + tumor cells per 5×10^3 µm^2 area was quantified to characterize tumor size.

T1 sequence (P84077 whole entry): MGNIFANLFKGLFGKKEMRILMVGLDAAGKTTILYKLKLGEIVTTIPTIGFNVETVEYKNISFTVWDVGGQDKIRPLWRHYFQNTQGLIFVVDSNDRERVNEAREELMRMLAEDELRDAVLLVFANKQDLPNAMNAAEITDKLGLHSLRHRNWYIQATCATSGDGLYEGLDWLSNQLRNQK

Molecule: Cc1nc2ccc(Nc3ncnc4scc(C)c34)cc2[nH]1 [Compound 25, 5-Methyl-N-(2-methyl-1H-benzo[d]imidazol-6-yl)thieno[2,3-d]pyrimidin-4-amine]
- inhibition of CT26 colon cancer (CT26 colon cancer [1]): effectively inhibit CT26 colon cancer

Molecule: Cn1cnc2cc(Nc3ncnc4sc5c(c34)CCN(C(=O)c3ccc(Cl)s3)C5)ccc21 [Compound 26, (5-Chlorothiophen-2-yl)(4-((1-methyl-1H-benzo[d]imidazol-5-yl)amino)-5,8-dihydropyrido[4',3':4,5]thieno[2,3-d]pyrimidin-7(6H)-yl)methanone]
- inhibition of CT26 colon cancer (CT26 colon cancer [1]): effectively inhibit CT26 colon cancer

Molecule: Cc1nc2ccc(Nc3ncnc4sc5c(c34)CCNC5)cc2[nH]1 [Compound 28, N-(2-Methyl-1H-benzo[d]imidazol-6-yl)-5,6,7,8-tetrahydropyrido[4',3':4,5]thieno[2,3-d]pyrimidin-4-amine]
- inhibition of CT26 colon cancer (CT26 colon cancer [2]): effectively inhibit CT26 colon cancer

Molecule: CC(=O)N1CCc2c(sc3ncnc(Nc4ccc5nc(C)[nH]c5c4)c23)C1 [Compound 30, 1-(4-((2-Methyl-1H-benzo[d]imidazol-6-yl)amino)-5,8-dihydropyrido[4',3':4,5]thieno[2,3-d]pyrimidin-7(6H)-yl)ethanone]
- inhibition of CT26 colon cancer (CT26 colon cancer [2]): effectively inhibit CT26 colon cancer

Molecule: Cc1nc2cc(Nc3ncnc4sc5c(c34)CCCCCC5)ccc2[nH]1 [Compound 31, N-(2-Methyl-1H-benzo[d]imidazol-5-yl)-5,6,7,8,9,10-hexahydrocycloocta[4,5]thieno[2,3-d]pyrimidin-4-amine]
- inhibition of CT26 colon cancer (CT26 colon cancer [2]): effectively inhibit CT26 colon cancer

Molecule: Cc1nc2cc(/C=N/Nc3ncnc4sc5c(c34)CCCCCC5)ccc2[nH]1 [Compound 33, (E)-4-(2-((2-Methyl-1H-benzo[d]imidazol-5-yl)methylene)hydrazinyl)-5,6,7,8,9,10-hexahydrocycloocta[4,5]thieno[2,3-d]pyrimidine]
- inhibition of CT26 colon cancer (CT26 colon cancer [2]): effectively inhibit CT26 colon cancer

Molecule: Fc1cc(F)c2c(c1)[C@H]1C=CC[C@H]1C(c1cccnc1)N2 (stereo partly shown) [GCA, reference compound]
- phosphorylation level of P65 (NF-κB signaling pathway): increase the phosphorylation level of P65
- Golgi morphology (Golgi apparatus defects, distribution of Golgi marker GM130) (Mouse neuroblastoma N2A): effectively induce morphological changes in the Golgi apparatus

Molecule: N-(1H-Indol-5-yl)-methylthieno[2,3-d]pyrimidin-4-amine [Compound 3]
- inhibition of Arf1 activation (Arf1): effectively inhibit the activation of Arf1; also recorded: effective inhibitors
- phosphorylation level of P65 (NF-κB signaling pathway): increase the phosphorylation level of P65
- expression of the chemokine CCL5 (CCL5): effectively promote the expression
- Golgi morphology (Golgi apparatus defects, distribution of Golgi marker GM130) (Mouse neuroblastoma N2A): induce Golgi apparatus defects; also recorded: effectively induce morphological changes in the Golgi apparatus
- orthotopic tumor growth in Drosophila [3]: effectively inhibit orthotopic tumor growth
